Results as given in patent US20070092551A1, “Therapeutic agent” (TAKARA BIO INC., priority 2003, published 2007).

The compounds below were run against T1, fusion protein of an yeast GAL4 DNA-binding domain and a human PPARγ ligand-binding site (Homo sapiens, UniProt P37231) (assay: PPARγ activation reporter assay in CV-1 cells). Conditions: test compound 10 μM, pFA-CMV (PPARγ), 24 hours.
T1 construct: expressed in transfected cells; host or cells: CV-1 cells
T1 sequence (P37231 204-505): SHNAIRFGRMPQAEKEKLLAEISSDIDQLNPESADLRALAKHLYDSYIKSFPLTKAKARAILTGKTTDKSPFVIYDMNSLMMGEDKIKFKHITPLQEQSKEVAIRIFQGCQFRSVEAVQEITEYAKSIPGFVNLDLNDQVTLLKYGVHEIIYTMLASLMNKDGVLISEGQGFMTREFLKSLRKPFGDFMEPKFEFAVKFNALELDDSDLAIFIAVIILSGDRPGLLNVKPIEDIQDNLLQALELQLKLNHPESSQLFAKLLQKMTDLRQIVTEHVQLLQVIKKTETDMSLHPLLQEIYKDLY
Type: cell-based
Procedure: The activation ability for PPARγ was determined by a reporter assay using a fusion protein of an yeast GAL4 DNA-binding domain and a human PPARγ ligand-binding site.
A plasmid (pGAL4/GL3-Promoter) was prepared by repeating five times insertion of a binding site (UASg) of GAL4 into a multicloning site of a pGL3-Promoter vector (Promega). In addition, a ligand-binding site (amino acid sequence 204 to 505) of the PPARγ gene was cloned from a human liver cDNA library (manufactured by TAKARA BIO INC.) by a polymerase chain reaction, and the ligand-binding site was inserted into a multicloning site of a pFA-CMV plasmid vector ([…]) to give pFA-CMV (PPARγ).
Escherichia coli JM-109 strain was transformed with each of the two kinds of the plasmids obtained by the above-mentioned procedures, and pFA-CMV and pRL-TK (Promega) according to a conventional method. Each of the Escherichia coli cells was cultured with shaking at 37° C. for 18 hours in an LB medium containing 100 μg/mL ampicillin. Thereafter, the plasmids of each were purified according to the procedure manual of QIAfilter Plasmid midi Kit (QIAGEN).
CV-1 cells were seeded in a 24-well plate so as to have a density of 4×10^4 cells per well. Thereafter, the cells were cultured in a Dulbecco's modified Eagle's medium (manufactured by Sigma, D5796) containing 10% fetal bovine serine (manufactured by Bio Whittaker) for 24 hours under the conditions of 37° C. and 5% CO2. Thereafter, in accordance with the procedure manual of LipofectAmine 2000 (Invitrogen), the gene transfer was carried out into the CV-1 cells with 200 ng of pFA-CMV (PPARγ) or pFA-CMV, 400 ng of pGAL4/GL3-promoter, and 200 ng of pRL-TK per well, and thereafter the cells were cultured for 24 hours under the conditions of 37° C. and 5% CO2. Thereafter, the medium was exchanged with a Dulbecco's modified Eagle's medium to which a test compound dissolved in dimethyl sulfoxide was previously added so as to have a final concentration of 10 μM. Thereafter, the cells were cultured for additional 24 hours. In addition, there were set a group with addition of dimethyl sulfoxide in place of a test compound as a negative control, and a group with addition of troglytazone (manufactured by Calbiochem) so as to have a final concentration of 3 μM as a positive control. The cells were washed with a phosphate buffered saline, and 5× PassiveLysisBuffer (Promega) which was previously diluted in 5-folds with distilled water was added thereto in an amount of 100 μL per well. The mixture was shaken at room temperature for 15 minutes to lyse cells. Twenty microliters of this lysed solution was applied in accordance with the procedure manual of Dual Luciferase Assay System (Promega), and a fluorescent luciferase emission intensity and a Renilla mullerei luciferase emission intensity were measured using Mithras-LB940 (BERTHOLD TECHNOLOGIES GmbH). The enhancing action for transcriptional activation of each test compound was shown as a relative value obtained by calculating a ratio of the fluorescent luciferase emission intensity to the Renilla mullerei luciferase emission intensity, wherein the value of the group with addition of the negative control is defined as 1.

Structure (SMILES) | enhancing action for transcriptional activation (PPARγ)
COc1ccc(C(=O)/C=C/c2ccc(O)cc2)c(O)c1CC=C(C)C [4-Hydroxyderricin, 4,2′-Dihydroxy-3′-prenyl-4′-methoxychalcone] | no enhancing action for transcriptional activation was found
COc1ccc(C(=O)/C=C/c2ccc(O)cc2)c(O)c1C/C=C(\C)CCC=C(C)C [Xanthoangelol F, 4,2′-Dihydroxy-3′-geranyl-4′-methoxychalcone] | no enhancing action for transcriptional activation was found
COc1ccc(C(=O)/C=C/c2ccc(O)cc2)c2c1CC(O)C(C)(C)O2 (stereo not shown) [Xanthoangelol H] | no enhancing action for transcriptional activation was found
CC(C)=CCC/C(C)=C/Cc1c(O)ccc(C(=O)/C=C/c2ccc(O)cc2)c1O [Xanthoangelol, 4,2′,4′-Trihydroxy-3′-geranylchalcone] | no enhancing action for transcriptional activation was found
